Measured values from ChEMBL document CHEMBL5543097, “Synthesis and structure-activity relationships of novel 14-membered 2-fluoro ketolides with structural modification at the C11 position” (Eur J Med Chem, 2024).
Converted amounts (≈) assume the structure as drawn.

What was measured:
Streptococcus pneumoniae [1] = experiment: Potency index, ratio of telithromycin MIC to test compound MIC for antibacterial activity against Streptococcus pneumoniae SPN19-13 assessed as inhibition of visible bacterial growth incubated for 18 hrs by broth microdilution method; format: functional
[2] = tested on: Staphylococcus epidermidis; experiment: Antibacterial activity against erythromycin-resistant Staphylococcus epidermidis 19-4 assessed as inhibition of visible bacterial growth incubated for 18 hrs by broth microdilution method; format: functional
Moraxella catarrhalis [3] = experiment: Antibacterial activity against Moraxella catarrhalis BCA 19-6 assessed as inhibition of bacterial growth incubated for 24 hrs by CLSI based broth microdilution method; format: functional
[4] = tested on: Staphylococcus epidermidis; experiment: Antibacterial activity against erythromycin-resistant Staphylococcus epidermidis 19-5 assessed as inhibition of visible bacterial growth incubated for 18 hrs by broth microdilution method; format: functional
Streptococcus pneumoniae [5] = experiment: Antibacterial activity against erythromycin-resistant Streptococcus pneumoniae SPN19-14 assessed as inhibition of visible bacterial growth incubated for 18 hrs by broth microdilution method; format: functional
Streptococcus pneumoniae [6] = experiment: Antibacterial activity against erythromycin-resistant Streptococcus pneumoniae SPN19-8 assessed as inhibition of visible bacterial growth incubated for 18 hrs by broth microdilution method; format: functional
[7] = tested on: Staphylococcus epidermidis; experiment: Antibacterial activity against erythromycin-resistant Staphylococcus epidermidis 19-9 assessed as inhibition of visible bacterial growth incubated for 18 hrs by broth microdilution method; format: functional
Haemophilus influenzae [8] = experiment: Antibacterial activity against Haemophilus influenzae HIN 20-18 assessed as inhibition of bacterial growth incubated for 20 to 24 hrs by CLSI based broth microdilution method; format: functional; conditions: time 20-24 hrs
Streptococcus pneumoniae [9] = experiment: Antibacterial activity against erythromycin-resistant Streptococcus pneumoniae SPN19-13 assessed as inhibition of visible bacterial growth incubated for 18 hrs by broth microdilution method; format: functional
[10] = tested on: Staphylococcus epidermidis; experiment: Antibacterial activity against erythromycin-resistant Staphylococcus epidermidis 19-8 assessed as inhibition of visible bacterial growth incubated for 18 hrs by broth microdilution method; format: functional
[11] = Cytotoxicity against mouse AML12 cells assessed as reduction in cell viability incubated for 48 hrs by MTT assay; format: toxicity, cell-based
Streptococcus agalactiae [12] = experiment: Antibacterial activity against erythromycin-resistant Streptococcus agalactiae 19-9 assessed as inhibition of visible bacterial growth incubated for 18 hrs by broth microdilution method; format: functional
[13] = tested on: Staphylococcus epidermidis; experiment: Antibacterial activity against erythromycin-resistant Staphylococcus epidermidis 19-11 assessed as inhibition of visible bacterial growth incubated for 18 hrs by broth microdilution method; format: functional
Streptococcus pneumoniae [14] = experiment: Potency index, ratio of telithromycin MIC to test compound MIC for antibacterial activity against Streptococcus pneumoniae SPN19-8 assessed as inhibition of visible bacterial growth incubated for 18 hrs by broth microdilution method; format: functional
Streptococcus pneumoniae [15] = experiment: Potency index, ratio of telithromycin MIC to test compound MIC for antibacterial activity against Streptococcus pneumoniae SPN19-14 assessed as inhibition of visible bacterial growth incubated for 18 hrs by broth microdilution method; format: functional
[16] = tested on: Staphylococcus epidermidis; experiment: Antibacterial activity against erythromycin-resistant Staphylococcus epidermidis 19-6 assessed as inhibition of visible bacterial growth incubated for 18 hrs by broth microdilution method; format: functional
Streptococcus pyogenes = experiment: Antibacterial activity against erythromycin-resistant Streptococcus pyogenes ATCC 19615 assessed as inhibition of visible bacterial growth incubated for 18 hrs by broth microdilution method; format: functional
Moraxella catarrhalis [17] = experiment: Antibacterial activity against Moraxella catarrhalis BCA 19-5 assessed as inhibition of bacterial growth incubated for 24 hrs by CLSI based broth microdilution method; format: functional; conditions: Moraxella catarrhalis, BCA 19-5, 24 h, read-out: MIC
Streptococcus agalactiae [18] = experiment: Antibacterial activity against erythromycin-resistant Streptococcus agalactiae 19-8 assessed as inhibition of visible bacterial growth incubated for 18 hrs by broth microdilution method; format: functional
Haemophilus influenzae [19] = experiment: Antibacterial activity against Haemophilus influenzae HIN 19-15 assessed as inhibition of bacterial growth incubated for 20 to 24 hrs by CLSI based broth microdilution method; format: functional; conditions: time 20-24 hrs
Moraxella catarrhalis [20] = experiment: Antibacterial activity against Moraxella catarrhalis BCA 19-31 assessed as inhibition of bacterial growth incubated for 24 hrs by CLSI based broth microdilution method; format: functional; conditions: BCA 19-31, 24 h
Haemophilus influenzae [21] = experiment: Antibacterial activity against Haemophilus influenzae HIN 19-18 assessed as inhibition of bacterial growth incubated for 20 to 24 hrs by CLSI based broth microdilution method; format: functional; conditions: HIN 19-18, time 20-24 hrs
[22] = tested on: Staphylococcus epidermidis; experiment: Potency index, ratio of telithromycin MIC to test compound MIC for antibacterial activity against erythromycin-resistant Staphylococcus epidermidis 19-8 assessed as inhibition of visible bacterial growth incubated for 18 hrs by broth microdilution method; format: functional
[23] = tested on: Staphylococcus epidermidis; experiment: Potency index, ratio of telithromycin MIC to test compound MIC for antibacterial activity against erythromycin-resistant Staphylococcus epidermidis 19-6 assessed as inhibition of visible bacterial growth incubated for 18 hrs by broth microdilution method; format: functional
[24] = tested on: Staphylococcus epidermidis; experiment: Potency index, ratio of telithromycin MIC to test compound MIC for antibacterial activity against erythromycin-resistant Staphylococcus epidermidis 19-4 assessed as inhibition of visible bacterial growth incubated for 18 hrs by broth microdilution method; format: functional
[25] = tested on: Staphylococcus epidermidis; experiment: Potency index, ratio of telithromycin MIC to test compound MIC for antibacterial activity against erythromycin-resistant Staphylococcus epidermidis 19-11 assessed as inhibition of visible bacterial growth incubated for 18 hrs by broth microdilution method; format: functional
[26] = tested on: Staphylococcus epidermidis; experiment: Potency index, ratio of telithromycin MIC to test compound MIC for antibacterial activity against erythromycin-resistant Staphylococcus epidermidis 19-5 assessed as inhibition of visible bacterial growth incubated for 18 hrs by broth microdilution method; format: functional
[27] = tested on: Staphylococcus epidermidis; experiment: Potency index, ratio of telithromycin MIC to test compound MIC for antibacterial activity against erythromycin-resistant Staphylococcus epidermidis 19-9 assessed as inhibition of visible bacterial growth incubated for 18 hrs by broth microdilution method; format: functional
[28] = Metabolic stability in human liver microsome assessed as intrinsic clearance measured at 60 mins by LC-MS/MS analysis; format: ADME; conditions: liver microsomes, read-out: CLH
[29] = Metabolic stability in human liver microsome assessed as parent compound remaining in absence of NADPH measured at 60 mins by LC-MS/MS analysis; format: ADME; conditions: liver microsomes, read-out: Stability
[30] = Metabolic stability in human liver microsome assessed as parent compound remaining in presence of NADPH measured at 60 mins by LC-MS/MS analysis; format: ADME; conditions: liver microsomes, read-out: Stability
[31] = Metabolic stability in human liver microsome assessed as half life measured at 60 mins by LC-MS/MS analysis; format: ADME; conditions: liver microsomes
[32] = Moraxella catarrhalis, BCA 19-6, 24 h, read-out: MIC

Compound	Ratio (Streptococcus pneumoniae [1])	MIC [2]	MIC (Moraxella catarrhalis [3]; [32])	MIC [4]	MIC (Streptococcus pneumoniae [5])	MIC (Streptococcus pneumoniae [6])	MIC [7]	MIC (Haemophilus influenzae [8])	MIC (Streptococcus pneumoniae [9])	MIC [10]	CC50 at 48 h [11]	MIC (Streptococcus agalactiae [12])	MIC [13]	Ratio (Streptococcus pneumoniae [14])	MIC [16]	MIC (Streptococcus pyogenes)	MIC (Moraxella catarrhalis [17])	MIC (Haemophilus influenzae [19])	MIC (Moraxella catarrhalis [20])	MIC (Haemophilus influenzae [21])	other results
CC[C@H]1OC(=O)[C@@](C)(F)C(=O)[C@H](C)[C@@H](O[C@@H]2O[C@H](C)C[C@H](N(C)C)[C@H]2O)[C@](C)(OC)C[C@@H](C)C(=O)[C@H](C)[C@H]2N(CCCOC(=O)Nc3ccc4c(c3)OCO4)C(=O)O[C@]12C	<4	0.06 mg/L (≈ 0.0704 µM)	< 0.03 mg/L	< 0.03 mg/L	< 0.03 mg/L	0.03 mg/L (≈ 0.0352 µM)	0.125 mg/L (≈ 0.147 µM)	8 mg/L (≈ 9.39 µM)	< 0.03 mg/L	< 0.03 mg/L	85.6 µM	0.125 mg/L (≈ 0.147 µM)	< 0.03 mg/L	<4	0.06 mg/L (≈ 0.0704 µM)	< 0.03 mg/L	< 0.03 mg/L	4 mg/L (≈ 4.7 µM)	–	–	MIC (Moraxella catarrhalis [3]; 24 h): 0.06 mg/L (≈ 0.0704 µM); Ratio (Streptococcus pneumoniae [15]): <4; MIC (Streptococcus agalactiae [18]): < 0.03 mg/L
CC[C@H]1OC(=O)[C@@](C)(F)C(=O)[C@H](C)[C@@H](O[C@@H]2O[C@H](C)C[C@H](N(C)C)[C@H]2O)[C@](C)(OC)C[C@@H](C)C(=O)[C@H](C)[C@H]2N(CCCOC(=O)Nc3cccs3)C(=O)O[C@]12C	<4	0.25 mg/L (≈ 0.307 µM)	0.25 mg/L (≈ 0.307 µM)	< 0.03 mg/L	0.25 mg/L (≈ 0.307 µM)	0.125 mg/L (≈ 0.154 µM)	0.5 mg/L (≈ 0.614 µM)	8 mg/L (≈ 9.83 µM)	0.25 mg/L (≈ 0.307 µM)	0.06 mg/L (≈ 0.0737 µM)	> 100 µM	1 mg/L (≈ 1.23 µM)	< 0.03 mg/L	<4	0.06 mg/L (≈ 0.0737 µM)	< 0.03 mg/L	0.25 mg/L (≈ 0.307 µM)	4 mg/L (≈ 4.91 µM)	0.06 mg/L (≈ 0.0737 µM)	4 mg/L (≈ 4.91 µM)	Ratio (Streptococcus pneumoniae [15]): <4
CC[C@H]1OC(=O)[C@@](C)(F)C(=O)[C@H](C)[C@@H](O[C@@H]2O[C@H](C)C[C@H](N(C)C)[C@H]2O)[C@](C)(OC)C[C@@H](C)C(=O)[C@H](C)[C@H]2N(CCCOC(=O)Nc3cccc(SC)c3)C(=O)O[C@]12C	–	< 0.03 mg/L	< 0.03 mg/L	0.03 mg/L (≈ 0.0351 µM)	< 0.03 mg/L	< 0.03 mg/L	< 0.03 mg/L	–	< 0.03 mg/L	< 0.03 mg/L	34.4 µM	0.125 mg/L (≈ 0.146 µM)	0.03 mg/L (≈ 0.0351 µM)	–	0.03 mg/L (≈ 0.0351 µM)	< 0.03 mg/L	< 0.03 mg/L	2 mg/L (≈ 2.34 µM)	< 0.03 mg/L	1 mg/L (≈ 1.17 µM)	Ratio [22]: 4; Ratio [23]: 4; Ratio [24]: 4; Ratio [25]: 4; Ratio [26]: 4; Ratio [27]: 4; MIC (Streptococcus agalactiae [18]): < 0.03 mg/L
CC[C@H]1OC(=O)[C@@](C)(F)C(=O)[C@H](C)[C@@H](O[C@@H]2O[C@H](C)C[C@H](N(C)C)[C@H]2O)[C@](C)(OC)C[C@@H](C)C(=O)[C@H](C)[C@H]2N(CCCOC(=O)Nc3c(C)noc3C)C(=O)O[C@]12C	–	0.25 mg/L (≈ 0.302 µM)	0.5 mg/L (≈ 0.605 µM)	0.03 mg/L (≈ 0.0363 µM)	0.25 mg/L (≈ 0.302 µM)	0.25 mg/L (≈ 0.302 µM)	0.5 mg/L (≈ 0.605 µM)	8 mg/L (≈ 9.67 µM)	0.25 mg/L (≈ 0.302 µM)	0.25 mg/L (≈ 0.302 µM)	> 100 µM	4 mg/L (≈ 4.84 µM)	0.125 mg/L (≈ 0.151 µM)	–	0.25 mg/L (≈ 0.302 µM)	< 0.03 mg/L	0.5 mg/L (≈ 0.605 µM)	1 mg/L (≈ 1.21 µM)	0.125 mg/L (≈ 0.151 µM)	1 mg/L (≈ 1.21 µM)	microsomal CLint [28]: 37.3 µL/min/mg; remaining at 1 h [29]: 101%; remaining at 1 h [30]: 26.6%; half-life [31]: 37.2 min
